Data set [1] concerns the target anabolic plant HPPD (p-hydroxyphenylpyruvate dioxygenase) from maize (Zea mays, UniProt A0A1D6H1G0). The class given is biochemical. The settings on record: for IC50: Table 1 of compounds of formula (I), HPPD inhibition, IC50 is a molar concentration. How it is done:
A modified form of the method for measuring catabolic HPPDs from human liver has been described by Lindblad (Lindblad, B. (1971) Clin. Chim. Acta 34, 113-121). End-point measurements are used in this case for detecting ^14C—CO2, which is liberated from ^14C-p-hydroxyphenylpyruvate by the enzymatic activity of HPPD.
To enrich the anabolic HPPD from plant tissues, young etiolated maize plants were homogenized in extraction buffer (20 mM phosphate buffer pH 7.0; 0.14 M KCl; 0.1 mg/ml glutathione and 1% insoluble polyvinylpyrrolidone) for 3×10 seconds, for example in a Waring blender. The extract was filtered (all other isolation steps were carried out at 4° C.) and centrifuged (20 minutes; 10,000 g). The supernatant was subjected to fractional ammonium sulfate precipitation. […] At this stage, it was possible to store the enzyme at −80° C. following dialysis in a suitable buffer, such as, for example, 20 mM phosphate buffer pH 7.0; 0.14 M KCl; 0.1 mg/ml glutathione.
The enzyme assays were performed in 20 ml polyethylene screw-top containers. Two hypodermic needles (0.9×40 mm) were pushed through the screw-top cap. One of the hypodermic needles was bent to form a hook onto which a small filter paper disk of diameter 10 mm was placed. The filter paper was moistened with 25 μl of methylbenzethonium hydroxide (Sigma). The second hypodermic needle was used for injecting start and stop solution into the screw-top container.
The enzyme reaction mix contained:
1 ml of 0.1 M phosphate buffer, pH 7.3;
2 g/l of bovine liver catalase;
100 μl of a mixture of 3 mM dichlorophenol-indophenol and
150 mM glutathione (reduced);
25 μl of acetone (or potential inhibitors dissolved in acetone) and
enzyme in a total volume of 1,635 μl.
After preincubation for 5 minutes at 30° C., the reaction was started by injecting 800 μl of ^14C-p-hydroxyphenylpyruvate. The reaction was stopped by injecting 600 μl of 1 N H2SO4, incubation was continued for 15 minutes, and the radioactivity which was liberated was determined on the small filter paper disks in a liquid scintillation counter.
(§1) FEBS-Letters, 1993, 318 (2), 162-166.

Data set [2] deals with Lemna gibba. The experiment in a line: Growth inhibition of Lemna. The class given is in vivo. The settings on record: for inhibition at 100 µM: 10^−4 M; for inhibition at 10 µM: 10^−5 M; for inhibition at 1 µM: 10^−6 M.
Description: as §1

For data set [3], the system named is plastoquinone biosynthesis in wheat. The experiment in a line: Incorporation of radioactivity from 14C-tyrosine into plastoquinone in wheat (thin-layer chromatography). The class given is in vivo. The settings on record: wheat plants sprayed with 100 g/ha in screening formulation, FIG. 1. As for the experimental part:
Thin-layer chromatography analysis of the incorporation of radioactivity from ^14C-tyrosine into plastoquinone. […] The lipophilic metabolites of the wheat were extracted using chloroform, separated on silica gel 60 HPTLC plates using chloroform: diethyl ether (99:1), and the radioactivity was analyzed by thin-layer scanner.

The test system of data set [4] is Lemna gibba. The experiment in a line: Neutralization of the effect of SC-0051 by homogentisic acid, number of Lemna gibba plants. In kind it is in vivo. The settings on record: day six. How it is done:
HPPD catalyzes the transformation of p-hydroxyphenylpyruvate to homogentisic acid. If HPPD inhibition is responsible for the herbicidal activity of an inhibitor, then it should be possible to neutralize the herbicidal effect by supplementation with homogentisic acid. […] The plant was grown in a sterile aqueous medium supplemented as described in Table 1.
Batches of three Lemna plants in 100 ml of sterile medium were incubated for six days with sterile-filtered supplements. […] The number of newly formed plants was determined on day six.

“And” between values parts separate entries of the source, which are not always exact repeats. Equal entries are not always repeated.

anabolic plant HPPD (p-hydroxyphenylpyruvate dioxygenase) from maize, sequence (A0A1D6H1G0 entry or part of it): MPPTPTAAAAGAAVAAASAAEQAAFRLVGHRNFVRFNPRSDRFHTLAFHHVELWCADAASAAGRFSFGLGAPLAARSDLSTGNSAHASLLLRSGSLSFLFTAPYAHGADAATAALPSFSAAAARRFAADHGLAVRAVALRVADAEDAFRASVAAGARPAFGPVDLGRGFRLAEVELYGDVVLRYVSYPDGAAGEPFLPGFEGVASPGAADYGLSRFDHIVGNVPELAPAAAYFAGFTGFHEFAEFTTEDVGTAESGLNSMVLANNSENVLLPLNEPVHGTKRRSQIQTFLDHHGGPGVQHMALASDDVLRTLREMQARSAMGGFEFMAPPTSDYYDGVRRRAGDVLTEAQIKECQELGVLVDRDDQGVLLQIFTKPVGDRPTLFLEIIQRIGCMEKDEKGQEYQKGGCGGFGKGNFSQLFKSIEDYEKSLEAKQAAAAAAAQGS

As to `CC1(C)CON(Cc2ccccc2Cl)C1=O` [clomazone, reference compound], the “Inhibition of HPPD (in words)” value in data set [1] (partially purified maize HPPD, FIG. 2) is given as “no inhibitory action”.
As for `CS(=O)(=O)c1ccc(C(=O)c2c(O)cc(Cl)cc2Cl)c(Cl)c1` [Example No. 183, 2,2′,4′-Trichloro-6′-hydroxy-4-methylsulfonylbenzophenone], the melting point is 123 to 126 °C and 123 to 125 °C. Further, inhibition in data set [1] was half-maximal at 4.8 nM (IC50). Also, in data set [2], the inhibition at 100 µM was 98%, the inhibition at 10 µM was 82% and testing at 1 µM gave an inhibition of 81%.
For the compound `CS(=O)(=O)c1ccc(C(=O)C2C(=O)CCCC2=O)c(Cl)c1` [SC-0051, 2-(2-chloro-4-methanesulfonylbenzoyl)-1,3-cyclohexanedione], the “Plastoquinone biosynthesis (incorporation of radioactivity from tyrosine into plastoquinone)” value in data set [3] is on record as “inhibited”. Also, the “Number of L. gibba plants” value in data set [4] (10^−7 M SC-0051, medium supplemented with 1 mM HGA) was determined as 32; in data set [4] (10^−7 M SC-0051, medium supplemented with 1 mM HPPD), 2; in data set [4] (10^−7 M SC-0051, no supplementation of the medium, start three plants), 3.
Consider “2-(2,4-Dichlorobenzoyl)-1,4-quinone [Example No. 91]”, for which, in data set [1], the midpoint of inhibition, the IC50, lay at 18 nM.
`CS(=O)(=O)c1ccc(C(=O)c2cc(C(=O)O)ccc2O)c(Cl)c1` [compound 88] had a melting point of 254 to 256 °C. In data set [1], this compound yielded a 50% inhibitory concentration (IC50) of 70 nM.
In turn, `Cc1cc(Cl)cc(C(=O)c2ccc(S(C)(=O)=O)cc2Cl)c1O` [Example No. 100, 2,5′-Dichloro-2′-hydroxy-3′-methyl-4-methylsulfonylbenzophenone] showed a melting point of 175 to 180 °C. Besides, the half-maximal inhibitory concentration (IC50) in data set [1] was 6.2 nM. In data set [2], the inhibition at 100 µM was 98%, the inhibition at 10 µM turned out to be 96% and the inhibition at 1 µM was 92%.

For orientation: IC50 means the midpoint of a concentration-inhibition curve. A higher IC50 goes with a need for much substance. Broadly, the inhibition is the share of the control response that was lost under treatment. One may read the melting point as the temperature of the solid-liquid transition.

The record behind these values is US6555714B1, “Inhibitors of hydroxyphenylpyruvate dioxygenase and an assay for identification of inhibitors” (Hoechst Aktiengesellschaft, priority 1993, dated 2003).
